From patent US5853731A, “Thromboxane A2 Receptor antagonism and antioxidant action of cinnamophilin and its derivatives, their pharmaceutical compositions and uses” (National Science Council, priority 1997, dated 1998)
Like-named read-outs stand apart in the source and are kept apart here.

Tests used:
PGE2 formation = test: Prostaglandin E2 formation caused by arachidonic acid (AA); type: cell-based; conditions: for Prostaglandin E2: caused by AA
TX synthase = test: Large scale screening test: TX synthase inhibition; type: biochemical
rat thoracic aorta [1] = biological target: T1, rat thoracic aorta (Rattus norvegicus, UniProt P34978); test: Rat aortic contraction caused by U-46619; type: cell-based, Wistar rat; conditions: for activity at 0.3 µM / activity at 1 µM / activity at 3 µM / activity at 10 µM: rat, read-out: Contraction (% of maximal contraction); for activity at 0.3 µM: cinnamophilin 0.3 μM; for activity at 1 µM: cinnamophilin 1 μM; for activity at 3 µM: cinnamophilin 3 μM; for activity at 10 µM: cinnamophilin 10 μM
T1 construct: The thoracic aorta was isolated and excess fat and connective tissue were removed; from tissue; host or cells: thoracic aorta rings of Wistar rats
T1 sequence (P34978 1-341): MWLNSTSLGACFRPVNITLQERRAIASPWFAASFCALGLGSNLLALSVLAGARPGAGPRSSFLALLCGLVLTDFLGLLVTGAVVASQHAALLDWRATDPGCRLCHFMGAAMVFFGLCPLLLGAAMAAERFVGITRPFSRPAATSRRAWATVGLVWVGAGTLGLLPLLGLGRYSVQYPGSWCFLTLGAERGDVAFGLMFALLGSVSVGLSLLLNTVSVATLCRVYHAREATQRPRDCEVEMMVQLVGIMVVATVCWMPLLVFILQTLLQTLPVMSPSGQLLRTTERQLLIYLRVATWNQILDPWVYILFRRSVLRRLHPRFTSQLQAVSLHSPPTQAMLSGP
Method: (§1) A. Rat Aortic Contraction
(§2) Wistar rats of either sex weighing 250 g to 300 g were killed by a blow to the head. The thoracic aorta was isolated and excess fat and connective tissue were removed. Vessels were cut into rings of about 5 mm in length and mounted in organ baths containing 5 ml Krebs solution of the following composition (mM): NaCl (118.4), KCl (4.7), CaCl (1.9), MgSO4 (1.2), KH2 PO4 (1.2), NaHCO3 (25.0) and glucose (11.7). The tissue bath solution was maintained at 37° C. and gassed with 95% O2 :5% CO2 mixture. Two stainless steel hooks were inserted into the aortic lumen, one was fixed while the other was connected to a transducer. Aortae were equilibrated in the medium for 90 min with three changes of Krebs solution and maintained under an optimal tension of 1 g before specific experimental protocols were initiated.
(§3) Contraction was recorded isometrically via a force-displacement transducer connected to a Grass polygraph. Aortae were allowed to preincubate for 15 minutes with cinnamophilin before generating the cumulative concentration-response curve with each agonist for 15-30 min at 3 min intervals. Results are expressed as a percentage of the maximal control response for each agonist.

rat thoracic aorta [2] = test: Rat aortic contraction caused by norepinephrine and high potassium (KCl); type: cell-based, Wistar rat; conditions: for K+ contraction (%), Tonic: K+ (80 mM); for K+ contraction (%), Tonic / norepinephrine contraction (%), Phrase (phasic) / norepinephrine contraction (%), Tonic: 15 min; for norepinephrine contraction (%), Phrase (phasic) / norepinephrine contraction (%), Tonic: norepinephrine 3 μM
Method: as §1, §2, §3
Rat aorta ring were preincubated with lignans or DMSO (0.1% control) at
37° C. for 15 min, then the inducer was added.

thromboxane B2 formation = test: Thromboxane B2 formation caused by arachidonic acid (AA); type: cell-based; conditions: for Thromboxane B2: caused by AA

COc1cc(CC(C)C(C)C(=O)c2ccc(O)c(OC)c2)ccc1O (centres unmarked) [Compound 1, cinnamophilin]
PGE2 level (PGE2 formation; 0.03-10 μM, AA): increase PGE2 and cAMP levels
Prostaglandin E2 (PGE2 formation; conc 0.01 μM): 40 ± 10 ng/mL
Prostaglandin E2 (PGE2 formation; conc 0.03 μM): 75 ± 15 ng/mL
Prostaglandin E2 (PGE2 formation; conc 0.1 μM): 115 ± 15 ng/mL
Prostaglandin E2 (PGE2 formation; conc 0.3 μM): 155 ± 29 ng/mL
Prostaglandin E2 (PGE2 formation; conc 1 μM): 205 ± 19 ng/mL
Prostaglandin E2 (PGE2 formation; conc 3 μM): 245 ± 20 ng/mL
Prostaglandin E2 (PGE2 formation; conc 10 μM): 2665 ± 21 ng/mL
TX synthase inhibitory property (TX synthase): TX synthase inhibitory
Kb (rat thoracic aorta [1]; against U-46619, 0.5% DMSO as control, read-out: pA2, rat aortic contraction induced by U-46619 (converted)): 0.0501 µM
activity at 0.3 µM (rat thoracic aorta [1]; U-46619 0.005 μM): 0%
activity at 0.3 µM (rat thoracic aorta [1]; U-46619 0.01 μM): 8 ± 2%
activity at 0.3 µM (rat thoracic aorta [1]; U-46619 0.02 μM): 16 ± 4.9%
activity at 0.3 µM (rat thoracic aorta [1]; U-46619 0.05 μM): 35 ± 2%
activity at 0.3 µM (rat thoracic aorta [1]; U-46619 0.1 μM): 52 ± 3%
activity at 0.3 µM (rat thoracic aorta [1]; U-46619 0.2 μM): 65 ± 4%
activity at 0.3 µM (rat thoracic aorta [1]; U-46619 0.5 μM): 79 ± 2%
activity at 0.3 µM (rat thoracic aorta [1]; U-46619 1 μM): 85 ± 4%
activity at 0.3 µM (rat thoracic aorta [1]; U-46619 2 μM): 92 ± 4%
activity at 1 µM (rat thoracic aorta [1]; U-46619 0.02 μM): 3%
activity at 1 µM (rat thoracic aorta [1]; U-46619 0.05 μM): 11 ± 2%
activity at 1 µM (rat thoracic aorta [1]; U-46619 0.1 μM): 22 ± 3%
activity at 1 µM (rat thoracic aorta [1]; U-46619 0.2 μM): 35 ± 3.2%
activity at 1 µM (rat thoracic aorta [1]; U-46619 0.5 μM): 53 ± 3.1%
activity at 1 µM (rat thoracic aorta [1]; U-46619 1 μM): 55 ± 4%
activity at 1 µM (rat thoracic aorta [1]; U-46619 2 μM): 81 ± 4%
activity at 1 µM (rat thoracic aorta [1]; U-46619 5 μM): 88 ± 3%
activity at 3 µM (rat thoracic aorta [1]; U-46619 0.05 μM): 0%
activity at 3 µM (rat thoracic aorta [1]; U-46619 0.1 μM): 8 ± 3.7%
activity at 3 µM (rat thoracic aorta [1]; U-46619 0.2 μM): 15 ± 4.3%
activity at 3 µM (rat thoracic aorta [1]; U-46619 0.5 μM): 34 ± 5.6%
activity at 3 µM (rat thoracic aorta [1]; U-46619 1 μM): 50 ± 5.6%
activity at 3 µM (rat thoracic aorta [1]; U-46619 2 μM): 65 ± 5%
activity at 3 µM (rat thoracic aorta [1]; U-46619 5 μM): 81 ± 3%
activity at 3 µM (rat thoracic aorta [1]; U-46619 10 μM): 90 ± 3%
activity at 10 µM (rat thoracic aorta [1]; U-46619 0.2 μM): 6 ± 4.3%
activity at 10 µM (rat thoracic aorta [1]; U-46619 0.5 μM): 15 ± 3.9%
activity at 10 µM (rat thoracic aorta [1]; U-46619 1 μM): 31 ± 3.8%
activity at 10 µM (rat thoracic aorta [1]; U-46619 2 μM): 45 ± 3%
activity at 10 µM (rat thoracic aorta [1]; U-46619 5 μM): 65 ± 5%
activity at 10 µM (rat thoracic aorta [1]; U-46619 10 μM): 86 ± 4%
K+ contraction (%), Tonic (rat thoracic aorta [2]; conc 1 μM): 60.2 ± 1.5%
K+ contraction (%), Tonic (rat thoracic aorta [2]; conc 3 μM): 36.6 ± 4.7%
K+ contraction (%), Tonic (rat thoracic aorta [2]; conc 10 μM): 5.2 ± 2.3%
K+ contraction (%), Tonic (rat thoracic aorta [2]; conc 50 μM): 4.5 ± 3.2%
phasic contractions (rat thoracic aorta [2]; noradrenaline and high potassium (80 mM)): inhibited the phasic contractions
norepinephrine contraction (%), Phrase (phasic) (rat thoracic aorta [2]; conc 3 μM): 121.8 ± 7.2%
norepinephrine contraction (%), Phrase (phasic) (rat thoracic aorta [2]; conc 5 μM): 100.4 ± 9.7%
norepinephrine contraction (%), Phrase (phasic) (rat thoracic aorta [2]; conc 10 μM): 69.3 ± 4.0%
norepinephrine contraction (%), Phrase (phasic) (rat thoracic aorta [2]; conc 50 μM): 65.9 ± 11.3%
norepinephrine contraction (%), Tonic (rat thoracic aorta [2]; conc 3 μM): 90.1 ± 5.5%
norepinephrine contraction (%), Tonic (rat thoracic aorta [2]; conc 5 μM): 77.1 ± 5.7%
norepinephrine contraction (%), Tonic (rat thoracic aorta [2]; conc 10 μM): 27.9 ± 0.5%
norepinephrine contraction (%), Tonic (rat thoracic aorta [2]; conc 50 μM): 14.6 ± 1.5%
TXA2 formation caused by AA (thromboxane B2 formation; 0.03-10 μM): inhibit markedly the TXA2 formation
Thromboxane B2 (thromboxane B2 formation; conc 0.01 μM): 371 ± 35 ng/mL
Thromboxane B2 (thromboxane B2 formation; conc 0.03 μM): 278 ± 25 ng/mL
Thromboxane B2 (thromboxane B2 formation; conc 0.1 μM): 200 ± 41 ng/mL
Thromboxane B2 (thromboxane B2 formation; conc 0.3 μM): 128 ± 25 ng/mL
Thromboxane B2 (thromboxane B2 formation; conc 1 μM): 69 ± 25 ng/mL
Thromboxane B2 (thromboxane B2 formation; conc 3 μM): 28 ± 10 ng/mL
Thromboxane B2 (thromboxane B2 formation; conc 10 μM): 20 ± 5 ng/mL
